Laboratory results: ChEMBL document CHEMBL1201862, “PubChem BioAssay data set” (2004)
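Where inhibition never reached the appropriate level, the endpoint shown equals the highest concentration tested. Otherwise, values were interpolated linearly from a five-concentration, 48-hour dose response in 96-well plates. GI50 is the concentration that inhibits growth by half.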 Calls of active or inactive are those of the source. Rule as the data show it: active = GI50 up to about 1.1 µM and inactive = higher.

Columns and labels:
Assay in all cases: DTP human tumour cell line panel, 48 h
SNB-75 = test system: SNB-75
NCI-H460 = test system: NCI-H460
786-0 = test system: 786-0
NCI-H226 = test system: NCI-H226
OVCAR-5 = test system: OVCAR-5
MOLT-4 = test system: MOLT-4
HOP-92 = test system: HOP-92
SF-539 = test system: SF-539
SW-620 = test system: SW-620
Malme-3M = test system: Malme-3M
ACHN = test system: ACHN
U-251 = test system: U-251
RPMI-8226 = test system: RPMI-8226
SK-MEL-28 = test system: SK-MEL-28
SK-MEL-5 = test system: SK-MEL-5
SNB-19 = test system: SNB-19
NCI-H23 = test system: NCI-H23
EKVX = test system: EKVX
M14 = test system: M14
M19-MEL = test system: M19-MEL
OVCAR-3 = test system: OVCAR-3
DLD-1 = test system: DLD-1
HT-29 = test system: HT-29
RXF 631 = test system: RXF 631
DMS-273 = test system: DMS-273
UACC-62 = test system: UACC-62
SR = test system: SR
SN12C = test system: SN12C
SK-MEL-2 = test system: SK-MEL-2
NCI-H522 = test system: NCI-H522
OVCAR-4 = test system: OVCAR-4
LXFL 529 = test system: LXFL 529
XF498 = test system: XF498
K562 = test system: K562
IGROV-1 = test system: IGROV-1
A498 = test system: A498
COLO 205 = test system: COLO 205
SK-OV-3 = test system: SK-OV-3
KM-20L2 = test system: KM-20L2
UACC-257 = test system: UACC-257
CAKI-1 = test system: CAKI-1
SNB-78 = test system: SNB-78
HCC 2998 = test system: HCC 2998
UO-31 = test system: UO-31
DMS-114 = test system: DMS-114
HOP-62 = test system: HOP-62
KM12 = test system: KM12
CCRF-CEM = test system: CCRF-CEM
SF-268 = test system: SF-268
OVCAR-8 = test system: OVCAR-8
HCT-116 = test system: HCT-116
A549 = test system: A549
TK-10 = test system: TK-10
HL-60 = test system: HL-60
NCI/ADR-RES = test system: NCI/ADR-RES
RXF 393 = test system: RXF 393
HCT-15 = test system: HCT-15
T47D = test system: T47D
MDA-MB-435 = test system: MDA-MB-435
DU-145 = test system: DU-145
SF-295 = test system: SF-295
Hs-578T = test system: Hs-578T
HOP-18 = test system: HOP-18
BT-549 = test system: BT-549
PC-3 = test system: PC-3
MCF7 = test system: MCF7
LOX IMVI = test system: LOX IMVI
MDA-MB-231 = test system: MDA-MB-231
MDA-N = test system: MDA-N

## NNC(=O)N/N=C1\CN(c2ccc(Cl)cc2Cl)C(=O)C(=O)C1c1nc2ccccc2o1 (stereo not given)
SNB-75
  GI50: > 100 µM (inactive)
NCI-H460
  GI50: > 100 µM (inactive)
786-0
  GI50: > 100 µM (inactive)
NCI-H226
  GI50: > 100 µM (inactive)
OVCAR-5
  GI50: > 100 µM (inactive)
MOLT-4
  GI50: > 100 µM (inactive)
HOP-92
  GI50: > 100 µM (inactive)
SF-539
  GI50: > 100 µM (inactive)
SW-620
  GI50: > 100 µM (inactive)
Malme-3M
  GI50: > 100 µM (inactive)
ACHN
  GI50: > 100 µM (inactive)
U-251
  GI50: 54.8 µM (inactive)
RPMI-8226
  GI50: > 100 µM (inactive)
SK-MEL-28
  GI50: > 100 µM (inactive)
SK-MEL-5
  GI50: > 100 µM (inactive)
SNB-19
  GI50: > 100 µM (inactive)
NCI-H23
  GI50: 85.5 µM (inactive)
EKVX
  GI50: > 100 µM (inactive)
M14
  GI50: > 100 µM (inactive)
M19-MEL
  GI50: > 100 µM (inactive)
OVCAR-3
  GI50: > 100 µM (inactive)
DLD-1
  GI50: > 100 µM (inactive)
HT-29
  GI50: > 100 µM (inactive)
RXF 631
  GI50: > 100 µM (inactive)
DMS-273
  GI50: > 100 µM (inactive)
UACC-62
  GI50: > 100 µM (inactive)
SR
  GI50: > 100 µM (inactive)
SN12C
  GI50: > 100 µM (inactive)
SK-MEL-2
  GI50: > 100 µM (inactive)
NCI-H522
  GI50: > 100 µM (inactive)
OVCAR-4
  GI50: > 100 µM (inactive)
LXFL 529
  GI50: > 100 µM (inactive)
XF498
  GI50: > 100 µM (inactive)
K562
  GI50: > 100 µM (inactive)
IGROV-1
  GI50: > 100 µM (inactive)
A498
  GI50: > 100 µM (inactive)
COLO 205
  GI50: > 100 µM (inactive)
SK-OV-3
  GI50: > 100 µM (inactive)
KM-20L2
  GI50: > 100 µM (inactive)
UACC-257
  GI50: > 100 µM (inactive)
CAKI-1
  GI50: > 100 µM (inactive)
SNB-78
  GI50: 39.1 µM (inactive)
HCC 2998
  GI50: > 100 µM (inactive)
UO-31
  GI50: 92.5 µM (inactive)
DMS-114
  GI50: > 100 µM (inactive)
HOP-62
  GI50: > 100 µM (inactive)
KM12
  GI50: > 100 µM (inactive)
CCRF-CEM
  GI50: > 100 µM (inactive)
SF-268
  GI50: > 100 µM (inactive)
OVCAR-8
  GI50: > 100 µM (inactive)
HCT-116
  GI50: > 100 µM (inactive)
A549
  GI50: > 100 µM (inactive)

## O=C1C2C3C=CC(C2C(=O)N1CN1CCOCC1)C1C2C(=O)N(CN4CCOCC4)C(=O)C2C31 (stereo not given)
SNB-75
  GI50: > 47.3 µM (inactive)
TK-10
  GI50: > 55.3 µM (inactive)
NCI-H460
  GI50: > 37.5 µM (inactive)
786-0
  GI50: > 42.8 µM (inactive)
HL-60
  GI50: > 40.6 µM (inactive)
NCI-H226
  GI50: > 47.3 µM (inactive)
OVCAR-5
  GI50: > 59.2 µM (inactive)
MOLT-4
  GI50: 18.2 µM (inactive)
HOP-92
  GI50: > 62.1 µM (inactive)
NCI/ADR-RES
  GI50: > 100 µM (inactive)
SF-539
  GI50: > 56.8 µM (inactive)
SW-620
  GI50: > 46.5 µM (inactive)
RXF 393
  GI50: > 49 µM (inactive)
Malme-3M
  GI50: > 100 µM (inactive)
ACHN
  GI50: > 53.3 µM (inactive)
U-251
  GI50: > 45.3 µM (inactive)
RPMI-8226
  GI50: 34.6 µM (inactive)
HCT-15
  GI50: > 42.4 µM
T47D
  GI50: > 100 µM (inactive)
SK-MEL-28
  GI50: > 48.6 µM (inactive)
SK-MEL-5
  GI50: > 43.2 µM (inactive)
SNB-19
  GI50: > 48 µM (inactive)
NCI-H23
  GI50: > 47.9 µM (inactive)
EKVX
  GI50: 97.1 µM (inactive)
MDA-MB-435
  GI50: > 100 µM (inactive)
M14
  GI50: > 42.9 µM (inactive)
M19-MEL
  GI50: 22.9 µM (inactive)
OVCAR-3
  GI50: > 55.7 µM (inactive)
DLD-1
  GI50: 40.4 µM (inactive)
HT-29
  GI50: > 60 µM (inactive)
RXF 631
  GI50: 11.5 µM (inactive)
DMS-273
  GI50: 18.2 µM (inactive)
UACC-62
  GI50: > 47 µM (inactive)
SR
  GI50: 30.8 µM (inactive)
DU-145
  GI50: > 100 µM (inactive)
SN12C
  GI50: > 44.7 µM (inactive)
SF-295
  GI50: > 62.2 µM (inactive)
Hs-578T
  GI50: > 100 µM (inactive)
SK-MEL-2
  GI50: > 44 µM (inactive)
NCI-H522
  GI50: > 40 µM (inactive)
OVCAR-4
  GI50: > 43.9 µM (inactive)
LXFL 529
  GI50: 19.6 µM (inactive)
K562
  GI50: 25.8 µM (inactive)
HOP-18
  GI50: 22.1 µM (inactive)
IGROV-1
  GI50: > 56 µM (inactive)
A498
  GI50: > 57.4 µM (inactive)
COLO 205
  GI50: > 43 µM (inactive)
SK-OV-3
  GI50: > 71.4 µM (inactive)
KM-20L2
  GI50: 27.4 µM (inactive)
UACC-257
  GI50: > 49.3 µM (inactive)
CAKI-1
  GI50: > 68.2 µM (inactive)
SNB-78
  GI50: 32.9 µM (inactive)
HCC 2998
  GI50: > 46.5 µM (inactive)
UO-31
  GI50: > 54 µM (inactive)
DMS-114
  GI50: 16.2 µM (inactive)
HOP-62
  GI50: > 100 µM (inactive)
BT-549
  GI50: > 100 µM (inactive)
KM12
  GI50: > 44.7 µM (inactive)
CCRF-CEM
  GI50: 18.7 µM (inactive)
SF-268
  GI50: > 44.5 µM (inactive)
PC-3
  GI50: > 100 µM (inactive)
MCF7
  GI50: > 100 µM (inactive)
LOX IMVI
  GI50: > 43.5 µM (inactive)
OVCAR-8
  GI50: > 48.3 µM (inactive)
HCT-116
  GI50: > 44.9 µM (inactive)
MDA-MB-231
  GI50: > 100 µM (inactive)
A549
  GI50: > 56 µM (inactive)
MDA-N
  GI50: > 100 µM (inactive)
